Reference: article PMC3692398 (Biochemical pharmacology, 2013)
Like-named read-outs stand apart in the source and are kept apart here.

What was measured:
h5-HT2C receptor [1] = target: T1, h5-HT2C receptor (Homo sapiens, UniProt P28335); experiment: biochemical; format: binding; conditions: for Ki: read-out: Inhibition of radioligand binding Ki ± sem, h5-HT2C [125I]DOI
T1 sequence (P28335 33-458): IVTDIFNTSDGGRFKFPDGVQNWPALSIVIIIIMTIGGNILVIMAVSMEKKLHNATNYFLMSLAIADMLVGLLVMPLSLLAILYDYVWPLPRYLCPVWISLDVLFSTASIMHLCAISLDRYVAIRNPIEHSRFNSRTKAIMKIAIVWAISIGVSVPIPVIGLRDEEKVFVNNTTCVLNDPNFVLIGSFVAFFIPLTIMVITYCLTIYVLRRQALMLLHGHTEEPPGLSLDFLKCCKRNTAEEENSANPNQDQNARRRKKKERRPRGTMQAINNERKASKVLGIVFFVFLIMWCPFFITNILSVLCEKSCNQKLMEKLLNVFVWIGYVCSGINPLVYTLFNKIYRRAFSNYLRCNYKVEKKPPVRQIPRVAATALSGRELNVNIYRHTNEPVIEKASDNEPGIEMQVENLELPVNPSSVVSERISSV

h5-HT2C receptor [2] = target: T1, h5-HT2C receptor; experiment: Inhibition of 5-HT-stimulated IP-1 formation; format: cell-based; conditions: 100 nM 5-HT; normalized to maximal inhibition by SB242084 (1 µM)
h5-HT2A receptor [3] = target: T2, h5-HT2A receptor (Homo sapiens, UniProt P28223); experiment: Inhibition of 5-HT-stimulated IP-1 formation; format: cell-based; conditions: 100 nM 5-HT; for h5-HT2A Inhibition of 5-HT-stimulated IP-1 formation % maximum inhibition ± sem: normalized to maximal inhibition by ketanserin (10 µM); for IC50: read-out: h5-HT2A Inhibition of 5-HT-stimulated IP-1 formation IC50 ± sem
hDAT [4] = target: T3, hDAT (Homo sapiens, UniProt Q01959); experiment: Inhibition of [125I]RTI-55 binding, HEK-hDAT membranes; conditions: read-out: Inhibition of [125I]RTI-55 binding Ki ± sem, hDAT; HEK-hDAT membranes
hNET [5] = target: T4, hNET (Homo sapiens, UniProt P23975); experiment: Superfusion release of preloaded [3H]NE from HEK-hNET cells; format: cell-based; conditions: for releasing efficacy, hNET [3H]NE: concentrations ranging from 10 nM to 100 µM; for EC50: read-out: Drug-induced release of [3H]neurotransmitter EC50 ± sem, hNET [3H]NE, superfusion, AUC; for % maximum release ± sem, hNET [3H]NE: relative to maximal AUC induced by METH (0.3 or 1 µM)
hVMAT2 [6] = target: T5, hVMAT2 (Homo sapiens, UniProt Q05940); experiment: Inhibition of [3H]DHTB binding, HEK-hVMAT2 membranes; conditions: read-out: Inhibition of [3H]DHTB binding Ki ± sem, hVMAT2
hDAT [7] = target: T3, hDAT; experiment: Superfusion release of preloaded [3H]DA from HEK-hDAT cells; format: cell-based; conditions: for releasing efficacy, hDAT [3H]DA: concentrations ranging from 1 nM to 100 µM; for EC50: read-out: Drug-induced release of [3H]neurotransmitter EC50 ± sem, hDAT [3H]DA, superfusion, AUC
hSERT [8] = target: T6, hSERT (Homo sapiens, UniProt P31645); experiment: Superfusion release of preloaded [3H]5-HT from HEK-hSERT cells; format: cell-based; conditions: for EC50: read-out: Drug-induced release of [3H]neurotransmitter EC50 ± sem, hSERT [3H]5-HT, superfusion, AUC; for releasing efficacy, hSERT [3H]5-HT: concentrations ranging from 1 nM to 100 µM
hVMAT2 [9] = target: T5, hVMAT2; experiment: Inhibition of [3H]5-HT uptake, HEK-hVMAT2 membrane preparation; format: biochemical; conditions: read-out: Inhibition of [3H]5-HT uptake IC50 ± sem, hVMAT2; 40 nM [3H]5-HT, 2 mM MgATP
hSigma1 receptor = hSigma1 receptor (Homo sapiens, UniProt Q99720); experiment: [3H]; format: binding; conditions: read-out: Inhibition of [3H]pentazocine binding Ki ± sem, hSigma1
h5-HT2A receptor [10] = target: T2, h5-HT2A receptor; experiment: [125I]DOI binding, HEK-h5-HT2A; conditions: read-out: Inhibition of radioligand binding Ki ± sem, h5-HT2A [125I]DOI
hSERT [11] = target: T6, hSERT; experiment: Inhibition of [3H]5-HT uptake, intact HEK-hSERT cells; format: cell-based; conditions: for ratio of binding Ki to uptake IC50, hSERT: [125I]RTI-55 Ki / [3H]5-HT uptake IC50; for IC50: read-out: Inhibition of [3H]neurotransmitter uptake IC50 ± sem, hSERT [3H]5-HT, 20 nM [3H]5-HT, intact cells
hDAT [12] = target: T3, hDAT; experiment: Inhibition of [3H]DA uptake, intact HEK-hDAT cells; format: cell-based; conditions: for ratio of binding Ki to uptake IC50, hDAT: [125I]RTI-55 Ki / [3H]DA uptake IC50; for IC50: read-out: Inhibition of [3H]neurotransmitter uptake IC50 ± sem, hDAT [3H]DA, 20 nM [3H]DA, intact cells; for fold less potent at other target proteins than at biogenic amine transporters: other target proteins vs biogenic amine transporters
hNET [13] = target: T4, hNET; experiment: cell-based; format: cell-based; conditions: for IC50: read-out: Inhibition of [3H]neurotransmitter uptake IC50 ± sem, hNET [3H]NE
hVMAT2 [14] = target: T5, hVMAT2; experiment: Superfusion release of preloaded [3H]NE from HEK-hVMAT2 cells; format: cell-based; conditions: for EC50: read-out: Drug-induced release of [3H]NE EC50 ± sem, hVMAT2, superfusion
hNET [15] = target: T4, hNET; experiment: biochemical; format: binding; conditions: read-out: Inhibition of [125I]RTI-55 binding Ki ± sem, hNET
h5-HT1A receptor [16] = target: T7, h5-HT1A receptor (Homo sapiens, UniProt P08908); experiment: Stimulation of [35S]GTPγS binding, HEK-h5-HT1A membranes; format: biochemical; conditions: for h5-HT1A Stimulation of [35S]GTPγS binding % maximum stimulation ± sem: normalized to the maximal stimulation by 5-HT; for EC50: read-out: h5-HT1A Stimulation of [35S]GTPγS binding EC50 ± sem
T7 sequence (P08908 1-422): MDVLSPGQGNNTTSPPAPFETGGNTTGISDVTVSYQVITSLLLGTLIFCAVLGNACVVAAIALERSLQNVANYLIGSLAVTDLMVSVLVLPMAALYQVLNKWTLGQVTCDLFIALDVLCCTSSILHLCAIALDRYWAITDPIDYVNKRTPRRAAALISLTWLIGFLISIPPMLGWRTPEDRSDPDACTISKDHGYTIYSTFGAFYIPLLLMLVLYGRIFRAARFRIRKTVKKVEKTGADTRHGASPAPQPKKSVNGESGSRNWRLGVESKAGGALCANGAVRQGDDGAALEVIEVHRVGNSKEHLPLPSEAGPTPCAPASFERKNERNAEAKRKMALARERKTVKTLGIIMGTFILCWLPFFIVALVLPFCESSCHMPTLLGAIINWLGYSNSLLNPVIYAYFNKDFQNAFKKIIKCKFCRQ

h5-HT1A receptor [17] = target: T7, h5-HT1A receptor; experiment: [3H]8-OH-DPAT binding, HEK-h5-HT1A; conditions: read-out: Inhibition of radioligand binding Ki ± sem, h5-HT1A [3H]8OH-DPAT
[18] = blood from heart, periphery, and femoral veins; postmortem cases; ref [32];[33];[34]; cited from earlier work
[19] = [125I]RTI-55 Ki / [3H]NE uptake IC50

T4 sequence (P23975 whole entry, the tested form may be a part): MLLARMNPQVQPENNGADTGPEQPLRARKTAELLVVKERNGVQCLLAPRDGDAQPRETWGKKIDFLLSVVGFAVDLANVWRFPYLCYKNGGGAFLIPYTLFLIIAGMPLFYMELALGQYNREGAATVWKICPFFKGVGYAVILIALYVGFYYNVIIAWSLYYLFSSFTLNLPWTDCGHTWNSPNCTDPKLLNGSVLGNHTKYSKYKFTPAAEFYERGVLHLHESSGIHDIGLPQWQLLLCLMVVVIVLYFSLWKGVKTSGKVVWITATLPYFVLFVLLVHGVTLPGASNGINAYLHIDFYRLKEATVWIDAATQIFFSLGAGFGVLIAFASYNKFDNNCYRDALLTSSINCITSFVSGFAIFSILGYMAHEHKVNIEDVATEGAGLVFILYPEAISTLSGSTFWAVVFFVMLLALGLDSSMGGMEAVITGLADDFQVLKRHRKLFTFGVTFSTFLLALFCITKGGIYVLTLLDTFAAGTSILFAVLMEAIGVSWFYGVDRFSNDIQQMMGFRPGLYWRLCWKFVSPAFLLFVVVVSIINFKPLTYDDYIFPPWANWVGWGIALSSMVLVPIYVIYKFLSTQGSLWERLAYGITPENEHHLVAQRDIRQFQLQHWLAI
hSigma1 receptor, sequence (Q99720 whole entry): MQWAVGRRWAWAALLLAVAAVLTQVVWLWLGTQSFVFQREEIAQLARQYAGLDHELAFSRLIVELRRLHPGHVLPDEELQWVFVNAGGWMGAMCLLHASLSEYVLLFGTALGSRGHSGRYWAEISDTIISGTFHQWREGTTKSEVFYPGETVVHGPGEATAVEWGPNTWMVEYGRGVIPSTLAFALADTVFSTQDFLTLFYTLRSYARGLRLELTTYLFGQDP
T6 sequence (P31645 whole entry, the tested form may be a part): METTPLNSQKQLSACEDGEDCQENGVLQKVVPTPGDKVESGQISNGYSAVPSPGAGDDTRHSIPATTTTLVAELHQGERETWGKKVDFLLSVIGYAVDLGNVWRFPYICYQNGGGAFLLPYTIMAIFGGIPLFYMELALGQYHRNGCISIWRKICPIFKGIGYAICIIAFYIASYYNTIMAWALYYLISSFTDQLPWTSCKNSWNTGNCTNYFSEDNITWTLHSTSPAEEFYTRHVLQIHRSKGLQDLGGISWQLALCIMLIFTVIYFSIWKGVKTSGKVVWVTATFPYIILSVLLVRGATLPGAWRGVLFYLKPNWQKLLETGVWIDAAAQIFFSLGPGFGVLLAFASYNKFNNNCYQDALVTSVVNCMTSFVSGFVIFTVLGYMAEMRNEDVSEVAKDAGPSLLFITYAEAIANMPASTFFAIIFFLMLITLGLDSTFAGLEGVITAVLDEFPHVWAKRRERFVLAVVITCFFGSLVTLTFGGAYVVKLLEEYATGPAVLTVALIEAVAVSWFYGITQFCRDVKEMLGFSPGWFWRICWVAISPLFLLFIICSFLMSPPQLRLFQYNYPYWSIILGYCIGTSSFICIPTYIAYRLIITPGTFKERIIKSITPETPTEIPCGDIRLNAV
T3 sequence (Q01959 whole entry, the tested form may be a part): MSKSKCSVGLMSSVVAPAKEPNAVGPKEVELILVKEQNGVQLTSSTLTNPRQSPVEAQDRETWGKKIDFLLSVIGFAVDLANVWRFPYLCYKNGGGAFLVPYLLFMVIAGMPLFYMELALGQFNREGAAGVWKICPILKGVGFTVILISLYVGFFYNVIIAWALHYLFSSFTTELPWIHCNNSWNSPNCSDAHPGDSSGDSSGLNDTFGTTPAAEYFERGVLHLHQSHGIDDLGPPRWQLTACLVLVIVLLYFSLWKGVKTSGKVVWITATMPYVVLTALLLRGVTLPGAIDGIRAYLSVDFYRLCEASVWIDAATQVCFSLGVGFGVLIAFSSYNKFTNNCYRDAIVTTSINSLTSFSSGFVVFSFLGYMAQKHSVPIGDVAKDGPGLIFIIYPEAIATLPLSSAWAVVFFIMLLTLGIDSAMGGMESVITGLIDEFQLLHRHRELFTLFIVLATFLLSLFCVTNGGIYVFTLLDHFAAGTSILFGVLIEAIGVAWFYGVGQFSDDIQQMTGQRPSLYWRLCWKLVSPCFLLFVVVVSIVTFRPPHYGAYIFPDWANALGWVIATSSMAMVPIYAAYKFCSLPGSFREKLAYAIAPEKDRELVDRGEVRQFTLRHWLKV
T2 sequence (P28223 whole entry): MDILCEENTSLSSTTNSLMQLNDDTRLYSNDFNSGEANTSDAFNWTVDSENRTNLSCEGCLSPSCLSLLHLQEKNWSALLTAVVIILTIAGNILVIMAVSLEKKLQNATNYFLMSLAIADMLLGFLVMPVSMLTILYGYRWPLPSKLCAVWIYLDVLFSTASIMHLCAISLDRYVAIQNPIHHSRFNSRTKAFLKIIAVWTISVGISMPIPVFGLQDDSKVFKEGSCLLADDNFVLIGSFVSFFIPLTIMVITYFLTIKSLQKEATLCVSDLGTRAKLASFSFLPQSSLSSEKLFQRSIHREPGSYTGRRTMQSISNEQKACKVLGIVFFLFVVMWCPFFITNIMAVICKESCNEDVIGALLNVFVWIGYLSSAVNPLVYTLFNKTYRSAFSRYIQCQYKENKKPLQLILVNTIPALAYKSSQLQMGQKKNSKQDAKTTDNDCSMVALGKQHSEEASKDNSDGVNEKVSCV
T5 sequence (Q05940 whole entry, the tested form may be a part): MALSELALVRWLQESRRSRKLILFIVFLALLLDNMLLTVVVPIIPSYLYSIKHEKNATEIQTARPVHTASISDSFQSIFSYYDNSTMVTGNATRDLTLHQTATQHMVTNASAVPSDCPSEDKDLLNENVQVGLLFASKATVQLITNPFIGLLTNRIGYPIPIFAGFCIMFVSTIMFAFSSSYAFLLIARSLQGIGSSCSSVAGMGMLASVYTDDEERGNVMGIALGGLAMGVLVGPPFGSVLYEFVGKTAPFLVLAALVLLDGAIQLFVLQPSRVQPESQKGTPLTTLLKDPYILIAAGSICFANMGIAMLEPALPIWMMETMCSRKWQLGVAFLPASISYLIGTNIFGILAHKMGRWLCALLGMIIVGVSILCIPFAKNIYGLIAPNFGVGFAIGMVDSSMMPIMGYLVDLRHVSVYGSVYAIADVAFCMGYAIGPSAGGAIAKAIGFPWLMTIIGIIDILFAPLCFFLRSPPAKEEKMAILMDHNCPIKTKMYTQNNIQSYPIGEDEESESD

Structure (SMILES) | h5-HT2C Inhibition of 5-HT-stimulated IP-1 formation % maximum inhibition ± sem (h5-HT2C receptor [2]) [%] | h5-HT2A Inhibition of 5-HT-stimulated IP-1 formation % maximum inhibition ± sem (h5-HT2A receptor [3]) [%] | IC50 (h5-HT2A receptor [3]) [µM] | Ki (hDAT [4]) [µM] | releasing efficacy, hNET [3H]NE (hNET [5]) | EC50 (hNET [5]) [µM] | % maximum release ± sem, hNET [3H]NE (hNET [5]) [%] | Ki (hVMAT2 [6]) [µM] | Ki (h5-HT2C receptor [1]) [µM] | releasing efficacy, hDAT [3H]DA (hDAT [7]) | EC50 (hDAT [7]) [µM] | % maximum release ± sem, hSERT [3H]5-HT (hSERT [8]) [%] | EC50 (hSERT [8]) [µM] | IC50 (hVMAT2 [9]) [µM] | Ki (hSigma1 receptor) [µM] | Ki (h5-HT2A receptor [10]) [µM] | ratio of binding Ki to uptake IC50, hSERT (hSERT [11]) | IC50 (hSERT [11]) [µM] | ratio of binding Ki to uptake IC50, hDAT (hDAT [12]) | IC50 (hDAT [12]) [µM] | further results
COc1cc(CC(C)N)c(OC)cc1I (racemic) [[^125I]DOI, (±)-1-(2,5,-dimethoxy-4-iodophenyl)-2-aminopropane, reference compound] |  |  |  |  |  |  |  |  |  |  |  |  |  |  |  |  |  |  |  |  | Kd (h5-HT2C receptor [1]; read-out: Kd of radioligand, HEK-H5HT2C): 0.00418 ± 0.00046 µM
CCC(NC)C(=O)c1ccc2c(c1)OCO2 (stereo not shown) [Butylone] | 11 ± 12 | 95.9 ± 4.1 | 410 ± 110 | 1.73 ± 0.27 | minimal releasing efficacy | > 100 | 3.6 ± 2.2 | 730 ± 110 | 41 ± 12 | minimal releasing efficacy | > 10 | 30.1 ± 6.5 | 3.1 ± 1.4 | 162 ± 55 | 7.9 ± 1.8 | 118 ± 17 | 5.3 | 1.97 ± 0.43 | 8.2 | 0.211 ± 0.054 | % maximum release ± sem, hDAT [3H]DA (hDAT [7]): 5.4 ± 3.8%; ratio of binding Ki to uptake IC50, hNET (hNET [13]; [19]): 7.5; IC50 (hNET [13]; 20 nM [3H]NE, intact cells): 1.06 ± 0.24 µM; Release of [3H]NE % maximum release ± sem or range, hVMAT2 (hVMAT2 [14]): 17.4 ± 1.1%; EC50 (hVMAT2 [14]): 4.4 ± 0.52 µM; Ki (hNET [15]; HEK-hNET membranes): 7.98 ± 0.55 µM; h5-HT1A Stimulation of [35S]GTPγS binding % maximum stimulation ± sem (h5-HT1A receptor [16]): 52 ± 13%; EC50 (h5-HT1A receptor [16]): 440 ± 110 µM; Ki (h5-HT1A receptor [17]): > 96 µM
CCCC(C(=O)c1ccc2c(c1)OCO2)N1CCCC1 (stereo not shown) [MDPV, 3,4-methylenedioxypyrovalerone] | 24.5 ± 8.4 | 67.7 ± 5.4 | 270 ± 86 | 0.0194 ± 0.0032 | minimal releasing efficacy | > 100 | 18 ± 15 | 990 ± 270 | 107 ± 30 | minimal releasing efficacy | > 100 |  | > 100 | > 100 | 4.4 ± 1.7 | 207 ± 29 | less than six | 1.38 | less than six | 0.0126 ± 0.0024 | % maximum release ± sem, hDAT [3H]DA (hDAT [7]): 4.8 ± 5.3%; releasing efficacy, hSERT [3H]5-HT (hSERT [8]): minimal releasing efficacy; % maximum release ± sem, hSERT [3H]5-HT (hSERT [8]; relative to maximal AUC induced by PCA (10 µM)): 6.9 ± 2.1%; fold less potent at other target proteins than at biogenic amine transporters (hDAT [12]): 60–350 fold; postmortem blood concentration [18]: 0.06 to 3.3 mg/L; postmortem blood concentration (molar) [18]: 0.25 to 14 µM; ratio of binding Ki to uptake IC50, hNET (hNET [13]; [19]): less than six; IC50 (hNET [13]; 20 nM [3H]NE, intact cells): 0.0188 ± 0.0021 µM; Release of [3H]NE % maximum release ± sem or range, hVMAT2 (hVMAT2 [14]): 35.8 ± 9.6%; EC50 (hVMAT2 [14]): 148 ± 84 µM; Ki (hNET [15]; HEK-hNET membranes): 0.107 ± 0.034 µM; h5-HT1A Stimulation of [35S]GTPγS binding % maximum stimulation ± sem (h5-HT1A receptor [16]): 69.0 ± 6.7%; EC50 (h5-HT1A receptor [16]): 60.8 ± 8.4 µM; Ki (h5-HT1A receptor [17]): 14.8 ± 3.8 µM
CCCC(C(=O)c1ccc2ccccc2c1)N1CCCC1 (stereo not shown) [Naphyrone, naphthylpyrovalerone] | 32 ± 14 | 98.18 ± 0.94 | 65 ± 11 | 0.0108 ± 0.00076 | minimal releasing efficacy | > 100 | 36 ± 18 | 119 ± 20 | 23.2 | minimal releasing efficacy | > 100 | 20.1 ± 9.3 | 7.5 ± 3 | 21.4 ± 7.1 | 0.509 ± 0.052 | 17.7 ± 2.6 | less than six | 0.0593 ± 0.0097 | less than six | 0.0126 ± 0.0031 | % maximum release ± sem, hDAT [3H]DA (hDAT [7]; relative to maximal AUC induced by METH (1 or 10 µM)): < 6%; releasing efficacy, hSERT [3H]5-HT (hSERT [8]): minimal releasing efficacy; fold less potent at other target proteins than at biogenic amine transporters (hDAT [12]): 60–350 fold; ratio of binding Ki to uptake IC50, hNET (hNET [13]): less than six; IC50 (hNET [13]): 0.035 µM; EC50 (hVMAT2 [14]): > 100 µM; Release of [3H]NE % maximum release ± sem or range, hVMAT2 (hVMAT2 [14]; relative to maximal AUC induced by METH (100 µM or 1 mM)): 34 ± 14%; Release of [3H]NE % maximum release ± sem or range, hVMAT2 (hVMAT2 [14]; relative to maximal AUC induced by METH (100 µM or 1 mM), listed as naphyrone): less than 35%; Ki (hNET [15]): 0.059 µM; h5-HT1A Stimulation of [35S]GTPγS binding % maximum stimulation ± sem (h5-HT1A receptor [16]): 80 ± 15%; EC50 (h5-HT1A receptor [16]): 116 ± 30 µM; Ki (h5-HT1A receptor [17]): 4.64 ± 0.6 µM
CC(N)Cc1ccc(Cl)cc1 (stereo not shown) [PCA, p-chloroamphetamine, reference compound] |  |  |  |  |  |  |  |  |  |  |  | 106.4 ± 2.0 | 0.8 ± 0.27 |  |  |  |  |  |  |  | 
